Test: Inhibition of ROCK1 in human THP1 cells assessed as inhibition of MCP1-induced cell migration

Row | IC50 [nM] | SMILES
1 | 57 | c1ccc2c(c1)CC(Oc1nc(Nc3ccncc3)nc(N3CCNCC3)n1)C2 [4-(2,3-dihydro-1H-inden-2-yloxy)-6-(piperazin-1-yl)-N-(pyridin-4-yl)-1,3,5-triazin-2-amine]
2 | 26 | C[C@@H]1CN(c2nc(Nc3ccncc3)nc(NC3Cc4ccccc4C3)n2)CCN1 [(R)-N2-(2,3-dihydro-1H-inden-2-yl)-6-(3-methylpiperazin-1-yl)-N4-(pyridin-4-yl)-1,3,5-triazine-2,4-diamine]
3 | 154 | c1ccc2c(c1)CC(Nc1cc(N3CCNCC3)nc(Nc3ccncc3)n1)C2 [N4-(2,3-dihydro-1H-inden-2-yl)-6-(piperazin-1-yl)-N2-(pyridin-4-yl)pyrimidine-2,4-diamine]
4 | 12 | c1ccc2c(c1)CC(Nc1cc(Nc3ccncc3)nc(N3CCNCC3)n1)C2 [N4-(2,3-dihydro-1H-inden-2-yl)-2-(piperazin-1-yl)-N6-(pyridin-4-yl)pyrimidine-4,6-diamine]

Reference: BindingDB's records for doi:10.1016/j.bmcl.2009.09.046 (Ligand Pharmaceuticals, 2009)
